Source: patent publication US5728580A, “Methods and culture media for inducing single cell suspension in insect cell lines” (Cornell Research Foundation, Inc., priority 1996, dated 1998)

What was measured:
TN5B1-4 cells [1] = assay: Inducing single-cell formation of clumped TN5B1-4 cells in suspension culture; assay type: cell-based, Trichoplusia ni; settings: for Inducing single-cell formation / dispersing clumped cells (in words): clumped suspension culture; for Inducing single-cell formation / dispersing clumped cells (in words) / Concentration adequate to maintain single-cell suspension: serum-free medium
[2] = test system: AcMNPV binding to TN5B1-4 cells; assay: Binding of [3H]thymidine-labeled AcMNPV budded virus to TN5B1-4 cells; assay type: cell-based; settings: for Virus Binding: 30 min; for Binding, A. Binding in Presence of Polyanions: 5 × 10^6 cells/ml for 30 min, control is binding in absence of polyanion; for Binding, C. Pretreatment of Cells: cells pretreated 3 h, washed once, control is untreated cells; for Binding, C. Pretreatment of Cells / Binding, B. Pretreatment of Virus: binding 1 h without polymer; for Binding, B. Pretreatment of Virus: virus pretreated 2 h, pelleted, control is untreated virus
TN5B1-4 cells [3] = settings: for Toxic above this level: tn5b1-4 cells
Experimental: Three different molecular weights of dextran sulfate, derived from dextran of MW 5000, 20000, 500000, were evaluated.
Compounds were evaluated for their ability to induce single cell suspension in 50-ml spinner flasks at 160 rpm. Control cells were passaged at least 10 times in suspension before they were used in any experiments. […] A qualitative score for reduction in clumping relative to control cells was assigned to cells grown in the presence of test compound at the end of the third passage. The protocol for enzyme treatment was the same, but the seeding density was 1×10^6 cells/ml and cells were evaluated after 24 h.

TN5B1-4 cells [4] = assay: Growth kinetics of TN5B1-4 cells in spinner flasks; assay type: cell-based, Trichoplusia ni; set-up: dose or concentration left out as unconfirmed
Experimental: TN5B1-4 suspension cells were grown in 50-ml spinner flasks (Bellco Glass, Vineland, N.J.) with a working volume of 40 ml at 160 rpm. SF21 cells were grown in similar vessels at 130 rpm in Ex-Cell 400 medium. The screw caps of the flasks were replaced with silicone foam closures for better oxygen transfer. Cells were passaged every 3 days.
The growth of TN5B1-4 DS 5000 cells in suspension was scaled-up to a 1.25 L Celligen reactor agitated with a marine impeller at 90 rpm. The cells were subcultured three times in this reactor with no clump formation. The doubling time was 20 h and a maximum density of 6-7×10^6 cells/ml was reached.

[5] = test system: AcMNPV binding to SF21 cells; assay: Binding of AcMNPV virus to SF21 cells; assay type: cell-based
Experimental: (§1) The inhibition of binding was further explored by considering the effect of increasing polyanion concentration on the binding of virus to TN5B1-4 and SF21. Less than 20 μg/ml of both dextran sulfate and heparin were required to attain maximum inhibition. […] Dextran sulfate reduced the binding of the virus to TN5B1-4 but not to SF21. […] The cell growth post-infection was used as a measure of virus infection since infection is known to inhibit cell division. Hereafter, synchronous infection is used to refer to infection with no measurable cell division post-infection.

[6] = test system: AcMNPV infection of TN5B1-4 cells; assay: Viral infection inhibition in TN5B1-4 (cell growth post-infection); assay type: cell-based; settings: at concentrations required to induce and maintain single-cell suspension; MOI 0.1 to 20
Experimental: as §1
The cells were infected at MOI of 0.1, 0.5, 1, 5, 10, and 20 to determine the lowest MOI for synchoronous infection.

[7] = test system: AcMNPV infection of SF21 cells; assay: Viral infection inhibition in SF21; assay type: cell-based
Experimental: as §1

[8] = test system: AcMNPV infection of TN5B1-4 cells; settings: cited from earlier work
[9] = 100 μg/ml, control = binding of virus to cells with no additive
[10] = 25 μg/ml, control = binding of virus to cells with no additive
[11] = 1000 μg/ml, control = binding of virus to cells with no additive

Substance: chondroitin disaccharides [Chondroitin sulfate disaccharides]
- Inducing single-cell formation / dispersing clumped cells (in words) (TN5B1-4 cells [1]): did not disperse clumped cells
- Virus Binding [2, 9]: 99 ± 6 % of Control

Substance: fructose 6-phosphate
- Inducing single-cell formation / dispersing clumped cells (in words) (TN5B1-4 cells [1]): ineffective

Substance: dextran sulfate [dextran sulfate 500000]
- Toxic above this level (TN5B1-4 cells [3]): above 5 μg/ml

Substance: glucose 6-phosphate
- Inducing single-cell formation / dispersing clumped cells (in words) (TN5B1-4 cells [1]): ineffective

Substance: sodium polyphosphoric acid
- Inducing single-cell formation / dispersing clumped cells (in words) (TN5B1-4 cells [1]): did not induce single-cell formation
- Virus Binding [2, 9]: 98 ± 1 % of Control

Substance: dextran sulfate [dextran sulfate I]
- Inducing single-cell formation in serum-containing media (TN5B1-4 cells [1]; serum-containing media, up to 300 μg/ml): complete elimination of clumping was not possible
- Concentration adequate to maintain single-cell suspension (TN5B1-4 cells [1]): 25 µg/mL
- Concentration required to attain maximum inhibition of virus binding (threshold value) [2]: Less than 20 μg/ml
- Binding, A. Binding in Presence of Polyanions ([2]; 25 μg/ml): 42 ± 2 % of control
- Virus Binding [2, 10]: 42 ± 2 % of Control
- Binding, C. Pretreatment of Cells ([2]; 25 μg/ml): 93 ± 9 % of control
- Binding, B. Pretreatment of Virus ([2]; 25 μg/ml): 103 ± 3 % of control
- Reduction of the attachment rate constant ([2]; at concentration required to maintain single-cell suspension): six-fold
- Toxic at concentrations greater than (TN5B1-4 cells [3]): greater than 0.1%
- Effect on doubling time and maximum cell density (TN5B1-4 cells [4]): does not affect
- Effect on binding of virus to SF21 [5]: did not affect binding
- Inhibition of viral infection [6]: not severely inhibited
- Inhibition of viral infection in SF21 [7]: inhibited infection

Substance: polyphosphate
- Inducing single-cell formation / dispersing clumped cells (in words) (TN5B1-4 cells [1]): did not induce single-cell formation

Substance: fucoidan sulfate
- Virus Binding [2, 10]: 53 ± 1 % of Control
- Virus Binding [2, 9]: 53 ± 1 % of Control

Substance: sodium carboxymethylcellulose [sodium CMC]
- Inducing single-cell formation / dispersing clumped cells (in words) (TN5B1-4 cells [1]): did not induce single-cell formation
- Virus Binding [2, 11]: 107 ± 1 % of Control

Substance: dermatan sulfate
- Virus Binding [2, 9]: 65 ± 7 % of Control

Substance: dextran sulfate [dextran sulfate II]
- Virus Binding [2, 10]: 82 ± 4 % of Control

Substance: κ-carrageenan
- Virus Binding [2, 9]: 73 ± 6 % of Control

Substance: Heparin
- Fold higher concentration required to induce single-cell suspension relative to dextran sulfate (TN5B1-4 cells [1]): 20 fold
- Concentration required to attain maximum inhibition of virus binding (threshold value) [2]: Less than 20 μg/ml
- Virus Binding [2, 9]: 63 ± 3 % of Control
- Inhibition of viral infection (as known) [8]: known to seriously inhibit infection

Substance: chondroitin sulfate
- Virus Binding [2, 9]: 94 ± 3 % of Control

Substance: heparin disaccharides
- Virus Binding [2, 9]: 103 ± 2 % of Control

Substance: Pluronic F68
- Inducing single-cell formation / dispersing clumped cells (in words) (TN5B1-4 cells [1]): ineffective
- Virus Binding [2, 11]: 98 ± 2 % of Control

Substance: hyaluronate
- Inducing single-cell formation / dispersing clumped cells (in words) (TN5B1-4 cells [1]): did not induce single-cell formation
- Virus Binding [2, 9]: 99 ± 1 % of Control

Substance: DEAE-dextran [DEAE dextran]
- Inducing single-cell formation / dispersing clumped cells (in words) (TN5B1-4 cells [1]): ineffective
- Virus Binding ([2]; 5 μg/ml, control = binding of virus to cells with no additive): 74 ± 9 % of Control

Substance: protamine sulfate
- Inducing single-cell formation / dispersing clumped cells (in words) (TN5B1-4 cells [1]): ineffective
- Virus Binding ([2]; 50 μg/ml, control = binding of virus to cells with no additive): virus ppt.

Substance: λ-carrageenan
- Virus Binding [2, 10]: 68 ± 3 % of Control
- Toxic above this level (TN5B1-4 cells [3]): > 25 µg/mL

Substance: dextran
- Inducing single-cell formation / dispersing clumped cells (in words) (TN5B1-4 cells [1]): ineffective
- Virus Binding [2, 9]: 97 ± 2 % of Control
- Virus Binding ([2]; 100 μg/ml, polymer of MW 580 kd, control = no additive): 99 ± 3 % of Control

Substance: polyvinyl sulfate
- Inducing single-cell formation / dispersing clumped cells (in words) (TN5B1-4 cells [1]): as effective as dextran sulfate
- Concentration adequate to maintain single-cell suspension (TN5B1-4 cells [1]): 25 µg/mL
- Virus Binding ([2]; 10 μg/ml, control = binding of virus to cells with no additive): 52 ± 4 % of Control
- Binding, A. Binding in Presence of Polyanions ([2]; 25 μg/ml): 52 ± 4 % of control
- Virus Binding [2, 10]: 52 ± 1 % of Control
- Binding, C. Pretreatment of Cells ([2]; 25 μg/ml): 95 ± 6 % of control
- Binding, B. Pretreatment of Virus ([2]; 25 μg/ml): 96 ± 5 % of control
- Inhibition of viral infection [6]: inhibited viral infection even at high MOI

Substance: pentosan sulfate
- Concentration adequate to maintain single-cell suspension (TN5B1-4 cells [1]): 100 µg/mL
- Virus Binding [2, 10]: 53 ± 3 % of Control
- Binding, A. Binding in Presence of Polyanions ([2]; 100 μg/ml): 55 ± 9 % of control
- Virus Binding [2, 9]: 55 ± 9 % of Control
- Binding, C. Pretreatment of Cells ([2]; 100 μg/ml): 96 ± 7 % of control
- Binding, B. Pretreatment of Virus ([2]; 100 μg/ml): 99 ± 4 % of control
- Inhibition of viral infection [6]: not severely inhibited
